This note sets out measurements from patent US12178902B1, “Methods and compositions for fluid drainage by Piezo ion channel activation” (UNIVERSITY OF SOUTHERN CALIFORNIA, priority 2020, dated 2024).

Assay [1] has as its target T1, Piezo1 (Mus musculus, UniProt E2JF22).
T1 construct: from tissue; host or cells: Prox1-EGFP mice (pregnant females at E18.5 and pups at P0); lymphatic vessels of mesentery (jejunum, colon) and tail skin
The assay is described as follows: Lymphatic valve formation in Prox1-EGFP mice after perinatal Yoda1 administration. Type of assay: in vivo. Conditions: Yoda1 70 μg/kg intraperitoneal at E18.5 and P0, evaluated at P1, mesenteries of the jejunum and the colon, tail skin. The source says:
All mouse works have been approved by the Institutional Animal Care and Use Committee, University of Southern California (PI: YK Hong). Sources of the mice are: Prox1-EGFP (Tg(Prox1-EGFP)KY221Gsat, Mutant Mouse Resource and Research Centers) (35), Prox1-tdTomato (Tg(Prox1-tdTomato)TA76Gsat/Mmucd, Mutant Mouse Resource and Research Centers) (28), Prox1-CreER^T2 (a kind gift from Dr. Taija Makinen, Uppsala University, Sweden) (17), Piezo1^fl/fl (Piezo1^tm2.1Apat/J. Jackson Laboratory) (29). Mice were maintained in mixed outbred backgrounds. […]
Pregnant Prox1-EGFP females at E18.5 were intraperitoneal injected with vehicle or Yoda1 (70 μg/kg). […] Equivalent anatomic locations were selected for capturing images in the vehicle and Yoda1-treated groups, and their lymphatic valve formation was investigated and quantified (Supplemental FIG. 5).
As Piezo1 was originally identified as a mechanically activated cation channel (21-25), we next asked whether another physical force, such as cell stretching, could stimulate Piezo1 and induce the molecular signature of lymphatic valves. […] Prox1-EGFP mice were perinatally administrated at E18.5 and P0 with a chemical agonist of Piezo1, Yoda1 (30), and lymphatic valve formation in the small intestine, colon, and skin was evaluated at P1. […]

The test system of assay [2] is cultured LECs. Put plainly: Lymphatic valve gene expression in Yoda1-treated cultured LECs in the absence of OSS. Type of assay: cell-based, human. As for the experimental part:
As Piezo1 was originally identified as a mechanically activated cation channel (21-25), we next asked whether another physical force, such as cell stretching, could stimulate Piezo1 and induce the molecular signature of lymphatic valves. To address this question, primary LECs were subjected to cyclic cell stretching (112%, 12 Hz) for 4, 8, and 24 hours in the absence of OSS, and the expression of the lymphatic valve genes were investigated. […] In addition, we investigated whether chemical activation of Piezo1 promotes lymphatic valve formation in animals. Prox1-EGFP mice were perinatally administrated at E18.5 and P0 with a chemical agonist of Piezo1, Yoda1 (30), and lymphatic valve formation in the small intestine, colon, and skin was evaluated at P1. […] We then asked whether Yoda1 could activate cultured LECs to upregulate lymphatic valve genes in the absence of OSS.

“Also recorded” adds a separate entry of the source.

T1 sequence (E2JF22 whole entry): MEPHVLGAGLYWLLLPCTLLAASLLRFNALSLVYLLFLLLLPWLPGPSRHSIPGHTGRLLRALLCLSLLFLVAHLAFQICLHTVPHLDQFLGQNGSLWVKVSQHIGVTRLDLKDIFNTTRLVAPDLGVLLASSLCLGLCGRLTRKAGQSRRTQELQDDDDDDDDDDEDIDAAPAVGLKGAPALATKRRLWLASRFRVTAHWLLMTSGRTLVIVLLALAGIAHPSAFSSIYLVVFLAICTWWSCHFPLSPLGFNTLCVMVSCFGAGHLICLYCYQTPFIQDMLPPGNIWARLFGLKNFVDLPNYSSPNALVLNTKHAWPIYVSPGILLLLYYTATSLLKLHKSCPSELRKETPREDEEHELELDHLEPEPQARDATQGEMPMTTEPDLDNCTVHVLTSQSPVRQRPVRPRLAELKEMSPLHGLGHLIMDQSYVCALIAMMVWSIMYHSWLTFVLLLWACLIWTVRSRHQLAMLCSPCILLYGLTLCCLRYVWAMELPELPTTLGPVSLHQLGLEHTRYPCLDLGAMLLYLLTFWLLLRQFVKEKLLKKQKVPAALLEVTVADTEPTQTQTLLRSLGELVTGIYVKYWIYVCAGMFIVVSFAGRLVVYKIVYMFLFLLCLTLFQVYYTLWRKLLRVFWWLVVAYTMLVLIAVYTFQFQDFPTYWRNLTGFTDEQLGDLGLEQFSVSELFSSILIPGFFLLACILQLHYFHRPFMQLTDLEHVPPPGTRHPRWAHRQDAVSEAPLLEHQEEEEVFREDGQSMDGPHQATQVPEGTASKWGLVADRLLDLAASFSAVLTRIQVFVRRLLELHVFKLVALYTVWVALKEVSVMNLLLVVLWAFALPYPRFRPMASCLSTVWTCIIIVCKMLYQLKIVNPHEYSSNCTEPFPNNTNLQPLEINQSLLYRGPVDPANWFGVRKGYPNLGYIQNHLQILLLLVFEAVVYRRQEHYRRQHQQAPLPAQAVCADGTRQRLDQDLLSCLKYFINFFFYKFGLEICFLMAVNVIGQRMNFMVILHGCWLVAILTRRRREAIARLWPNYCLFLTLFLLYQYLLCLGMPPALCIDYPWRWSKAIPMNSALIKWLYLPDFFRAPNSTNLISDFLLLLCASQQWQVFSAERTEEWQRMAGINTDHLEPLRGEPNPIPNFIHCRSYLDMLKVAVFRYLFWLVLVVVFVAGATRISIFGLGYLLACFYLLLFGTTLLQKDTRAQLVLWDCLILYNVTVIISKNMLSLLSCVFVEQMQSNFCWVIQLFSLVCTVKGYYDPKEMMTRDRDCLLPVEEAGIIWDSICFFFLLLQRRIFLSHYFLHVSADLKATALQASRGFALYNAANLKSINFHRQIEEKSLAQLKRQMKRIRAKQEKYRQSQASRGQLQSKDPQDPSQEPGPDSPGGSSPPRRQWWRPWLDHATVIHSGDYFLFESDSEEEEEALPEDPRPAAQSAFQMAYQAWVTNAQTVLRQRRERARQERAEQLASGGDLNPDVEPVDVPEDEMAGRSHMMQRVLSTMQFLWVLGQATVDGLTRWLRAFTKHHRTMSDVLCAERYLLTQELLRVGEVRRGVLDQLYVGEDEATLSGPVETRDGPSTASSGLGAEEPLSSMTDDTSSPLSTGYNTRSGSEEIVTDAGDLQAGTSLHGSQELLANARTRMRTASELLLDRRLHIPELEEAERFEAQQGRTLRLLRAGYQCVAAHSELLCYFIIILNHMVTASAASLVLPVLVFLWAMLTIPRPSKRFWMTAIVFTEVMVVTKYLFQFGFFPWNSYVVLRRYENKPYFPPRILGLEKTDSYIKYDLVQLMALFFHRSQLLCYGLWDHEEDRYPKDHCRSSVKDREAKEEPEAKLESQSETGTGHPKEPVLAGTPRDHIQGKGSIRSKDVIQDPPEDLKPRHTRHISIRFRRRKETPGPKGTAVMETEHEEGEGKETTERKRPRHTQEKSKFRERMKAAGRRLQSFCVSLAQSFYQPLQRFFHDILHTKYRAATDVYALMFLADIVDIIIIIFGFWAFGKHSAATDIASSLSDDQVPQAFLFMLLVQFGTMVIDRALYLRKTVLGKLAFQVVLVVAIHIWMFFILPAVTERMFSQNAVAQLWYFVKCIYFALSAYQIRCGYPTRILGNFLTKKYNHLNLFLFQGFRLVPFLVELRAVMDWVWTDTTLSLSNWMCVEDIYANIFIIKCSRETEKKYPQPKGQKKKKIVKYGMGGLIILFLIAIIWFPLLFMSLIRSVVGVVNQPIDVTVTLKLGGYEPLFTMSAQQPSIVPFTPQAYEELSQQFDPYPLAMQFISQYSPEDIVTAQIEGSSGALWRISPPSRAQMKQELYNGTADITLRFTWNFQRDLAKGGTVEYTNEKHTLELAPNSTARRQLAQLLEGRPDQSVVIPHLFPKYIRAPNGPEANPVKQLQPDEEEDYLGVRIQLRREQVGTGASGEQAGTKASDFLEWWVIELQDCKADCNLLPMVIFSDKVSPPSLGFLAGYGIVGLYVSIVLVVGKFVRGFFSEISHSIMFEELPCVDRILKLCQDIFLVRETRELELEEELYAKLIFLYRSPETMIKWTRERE

As to `Clc1cccc(Cl)c1CSc1nnc(-c2cnccn2)s1` [Yoda1, 2-[(2,6-dichlorophenyl)methylsulfanyl]-5-pyrazin-2-yl-1,3,4-thiadiazole], the lymphatic valve formation result in assay [1] is given as “significantly expedited; also recorded: accelerated lymphatic valve formation”. For the same molecule, the FOXC2 expression entry in assay [2] was “rather downregulated”. Also, in assay [2] (Piezo1-dependent), the CX37 expression result is “upregulates”, the GATA2 expression result was “upregulates”, the ITGA9 expression entry is listed as “upregulates” and the LAMA5 expression result is “upregulates”.
